Data: patent US12441727B2, “Tricyclic compounds as inhibitors of KRAS” (Incyte Corporation, priority 2021, dated 2025)
Where two headings read alike, the source gives them in different places.

Assays:
KRAS G12C = KRAS G12C (Homo sapiens, UniProt P01116, G12C); experiment: GDP-GTP exchange assay (KRAS_G12C exchange assay); assay type: biochemical; conditions: bodipy-loaded KRAS G12C 2.5 nM, SOS1 150 nM, 2 hours pre-incubation with inhibitor; read-out: G12C_exchange
Method: The inhibitor potency of the exemplified compounds was determined in a fluorescence based guanine nucleotide exchange assay, which measures the exchange of bodipy-GDP (fluorescently labeled GDP) for GppNHp (Non-hydrolyzable GTP analog) to generate the active state of KRAS in the presence of SOS1 (guanine nucleotide exchange factor). Inhibitors were serially diluted in DMSO and a volume of 0.1 μL was transferred to the wells of a black low volume 384-well plate. 5 μL/well volume of bodipy-loaded KRAS G12C diluted to 5 nM in assay buffer (25 mM Hepes pH 7.5, 50 mM NaCl, 10 mM MgCl2 and 0.01% Brij-35) was added to the plate and pre-incubated with inhibitor for 2 hours at ambient temperature. Appropriate controls (enzyme with no inhibitor or with a G12C inhibitor (AMG-510)) were included on the plate. The exchange was initiated by the addition of a 5 μL/well volume containing 1 mM GppNHp and 300 nM SOS1 in assay buffer. The 10 μL/well reaction concentration of the bodipy-loaded KRAS G12C, GppNHp, and SOS1 were 2.5 nM, 500 uM, and 150 nM, respectively. The reaction plates were incubated at ambient temperature for 2 hours, a time estimated for complete GDP-GTP exchange in the absence of inhibitor. For the KRAS G12D and G12V mutants, similar guanine nucleotide exchange assays were used with 2.5 nM as final concentration for the bodipy loaded KRAS proteins and with 4 hours and 3 hours incubation after adding GppNHp-SOS1 mixture for G12D and G12V respectively. A cyclic peptide described to selectively bind G12D mutant (Sakamoto et al., BBRC 484.3 (2017), 605-611) or internal compounds with confirmed binding were used as positive controls in the assay plates. Fluorescence intensities were measured on a PheraStar plate reader instrument (BMG Labtech) with excitation at 485 nm and emission at 520 nm.
Either GraphPad prism or Genedata Screener SmartFit was used to analyze the data. The IC50 values were derived by fitting the data to a four parameter logistic equation producing a sigmoidal dose-response curve with a variable Hill coefficient.

KRAS_G12C pERK = experiment: Cellular pERK HTRF assay (KRAS_G12C pERK assay); assay type: cell-based, human; conditions: KRAS G12C cells, 4 hours incubation with compound, read-out: G12C_pERK
Method: MIA PaCa-2 (KRAS G12C; ATCC® CRL-1420), NCI-H358 (KRAS G12C; ATCC® CRL-5807), A427 (KRAS G12D; ATCC® HTB53), HPAFII (KRAS G12D; ATCC® CRL-1997), YAPC (KRAS G12V; DSMZ ACC382), SW480 (KRAS G12V; ATCC® CRL-228) and NCI-H838 (KRAS WT; ATCC® CRL-5844) cells are purchased from ATCC and maintained in RPMI 1640 media supplemented with 10% FBS (Gibco/Life Technologies). The cells are plated at 5000 cells per well (8 uL) into Greiner 384-well low volume, flat-bottom, and tissue culture treated white plates and incubated overnight at […], 5% CO2. The next morning, test compound stock solutions are diluted in media at 3× the final concentration and 4 uL are added to the cells, with a final concentration of 0.1% of DMSO. The cells are incubated with the test compounds for 4 hours (G12C and G12V) or 2 hrs (G12D) at 37° C., 5% CO2. Four uL of 4× lysis buffer with blocking reagent (Cisbio) are added to each well and plates are rotated gently (300 rpm) for 30 minutes at room temperature. Four uL per well of Cisbio anti Phospho-ERK 1/2 d2 is mixed with anti Phospho-ERK 1/2 Cryptate (1:1), and added to each well, incubated overnight in the dark at room temperature. Plates are read on the Pherastar plate reader at 665 nm and 620 nm wavelengths. Data are analyzed in Genedata Screener using SmartFit for IC50 values.

[1] = test system: KRAS_G12C pERK in MIA PaCa-2 cells; experiment: Whole Blood pERK1/2 HTRF assay (KRAS_G12C WB pERK assay); assay type: cell-based, human; conditions: compound in whole blood, 4 hours, read-out: G12C_WB_pERK
Method: MIA PaCa-2 cells (KRAS G12C; ATCC® CRL-1420), HPAF-II (KRAS G12D; ATCC® CRL-1997) and YAPC (KRAS G12V; DSMZ ACC382) are maintained in RPMI 1640 with 10% FBS (Gibco/Life Technologies). For MIA PaCa-2 assay, cells are seeded into 96 well tissue culture plates (Corning #3596) at 25000 cells per well in 100 uL media and cultured for 2 days at 37° C., 5% CO2 before the assay. For HPAF-II and YAPC assay, cells are seeded in 96 well tissue culture plates at 50000 cells per well in 100 uL media and cultured for 1 day before the assay. Whole Blood are added to the 1 uL dots of compounds (prepared in DMSO) in 96 well plates and mixed gently by pipetting up and down so that the concentration of the compound in blood is 1× of desired concentration, in 0.5% DMSO. The media is aspirated from the cells and 50 uL per well of whole blood with test compound is added and incubated for 4 hours for MIA PaCa and YAPC assay; or 2 hours for HPAF-II assay, respectively at 37° C., 5% CO2. After dumping the blood, the plates are gently washed twice by adding PBS to the side of the wells and dumping the PBS from the plate onto a paper towel, tapping the plate to drain well. Fifty ul/well of 1× lysis buffer #1 (Cisbio) with blocking reagent (Cisbio) and Benzonase nuclease (Sigma Cat #E1014-5KU, 1:10000 final concentration) is then added and incubated at room temperature for 30 minutes with shaking (250 rpm). Following lysis, 16 uL of lysate is transferred into 384-well Greiner small volume white plate using an Assist Plus (Integra Biosciences, NH). Four uL of 1:1 mixture of anti Phospho-ERK 1/2 d2 and anti Phospho-ERK 1/2 Cryptate (Cisbio) is added to the wells using the Assist Plus and incubated at room temperature overnight in the dark. Plates are read on the Pherastar plate reader at 665 nm and 620 nm wavelengths. Data are analyzed in Genedata Screener using SmartFit for IC50 values.

[2] = Human whole blood stability; assay type: in vitro ADME; conditions: percent remaining at 4 hr, 1 μM, 37° C.
Method: The whole blood stability of the exemplified compounds was determined by LC-MS/MS. The 96-Well Flexi-Tier™ Block (Analytical Sales & Services, Inc, Flanders, NJ) is used for the incubation plate containing 1.0 mL glass vials with 0.5 mL of blood per vial (pooled gender, human whole blood sourced from BIOIVT, Hicksville, NY or similar). Blood is pre-warmed in water bath to 37° C. for 30 minutes. 96-deep well analysis plate is prepared with the addition of 100 μL ultrapure water/well. 50 μL chilled ultrapure water/well is added to 96-deep well sample collection plate and covered with a sealing mat. 1 μL of 0.5 mM compound working solution (DMSO:water) is added to the blood in incubation plate to reach final concentrations of 1 μM, mixed by pipetting thoroughly and 50 μL is transferred 50 into the T=0 wells of the sample collection plate. Blood is allowed to sit in the water for 2 minutes and then 400 μL stop solution/well is added (acetonitrile containing an internal standard). The incubation plate is placed in the Incu-Shaker CO2 Mini incubator (Benchmark Scientific, Sayreville, NJ) at 37° C. with shaking at 150 rpm. At 1, 2 and 4-hr, the blood samples are mixed thoroughly by pipetting and 50 μL is transferred into the corresponding wells of the sample collection plate. Blood is allowed to sit in the water for 2 minutes and then 400 μL of stop solution/well is added. The collection plate is sealed and vortexed at 1700 rpm for 3 minutes (VX-2500 Multi-Tube Vortexer, VWR International, Radnor, PA), and samples are then centrifuged in the collection plate at 3500 rpm for 10 minutes (Allegra X-14R Centrifuge Beckman Coulter, Indianapolis, IN). 100 μL of supernatant/well is transferred from the sample collection plate into the corresponding wells of the analysis plate. The final plate is vortexed at 1700 rpm for 1 minute and analyze samples by LC-MS/MS. The peak area ratio of the 1, 2, and 4 hr samples relative to T=0 is used to determine the percent remaining. The natural log of the percent remaining versus time is used determine a slope to calculate the compounds half-life in blood (t1/2=0.693/slope).

Sequence of KRAS G12C (P01116 1-188 isoform P01116-2 G12C): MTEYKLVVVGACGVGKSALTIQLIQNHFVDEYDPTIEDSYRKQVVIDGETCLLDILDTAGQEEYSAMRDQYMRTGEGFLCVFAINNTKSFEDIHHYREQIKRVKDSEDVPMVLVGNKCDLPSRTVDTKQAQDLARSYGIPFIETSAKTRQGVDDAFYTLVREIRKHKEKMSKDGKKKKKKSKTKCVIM

Compound	IC50 (KRAS G12C)	IC50 (KRAS_G12C pERK; Homo sapiens, 4 h)	IC50 ([1]; Homo sapiens)	Human whole blood stability at 4 hr [2]	IC50 (KRAS_G12C pERK)	IC50 [1]
CN(C)C1(C)CN(c2nc3c(F)c(-c4ccc(F)c5cccnc45)c(C(F)(F)F)cc3c3c2nnn3[C@H]2CCN(C(=O)/C=C/CF)[C@H](CC#N)C2)C1 (single isomer, unassigned) [Example 1a]	≤ 50 nM	≤ 50 nM	≤ 50 nM	††† (WBS >90%)		
COc1c(C)cccc1-c1c(C(F)(F)F)cc2c(nc(N3CC(C)(N(C)C)C3)c3nnn([C@H]4CCN(C(=O)/C=C/CF)[C@H](CC#N)C4)c32)c1F (single isomer, unassigned) [Example 2a]	≤ 50 nM	≤ 50 nM	≤ 50 nM	†† (WBS >70% but ≤90%)		
COC/C=C/C(=O)N1CC[C@H](n2nnc3c(O[C@@H](C)[C@@H]4CCCN4C)nc4c(F)c(-c5c(C)ncc6ccccc56)c(C)cc4c32)C[C@H]1CC#N (single isomer, unassigned) [Example 24b]	≤ 50 nM		≤ 50 nM		≤ 50 nM	
COC/C=C/C(=O)N1CC[C@H](n2nnc3c(N4CC(C)(N(C)C)C4)nc4c(F)c(-c5cccc(C)c5C)c(C)cc4c32)C[C@H]1CC#N [Example 6, 2-((2S,4S)-4-(4-(3-(dimethylamino)-3-methylazetidin-1-yl)-7-(2,3-dimethylphenyl)-6-fluoro-8-methyl-1H-[1,2,3]triazolo[4,5-c]quinolin-1-yl)-1-((E)-4-methoxybut-2-enoyl)piperidin-2-yl)acetonitrile]	≤ 50 nM	≤ 50 nM	100 to 1000 nM			
COC/C=C/C(=O)N1CC[C@H](n2nnc3c(O[C@@H](C)[C@@H]4CCCN4C)nc4c(F)c(-c5nn(C)c6ccccc56)c(C)cc4c32)C[C@H]1CC#N [Example 9, 2-((2S,4S)-4-(6-fluoro-8-methyl-7-(1-methyl-1H-indazol-3-yl)-4-((S)-1-((S)-1-methylpyrrolidin-2-yl)ethoxy)-1H-[1,2,3]triazolo[4,5-c]quinolin-1-yl)-1-((E)-4-methoxybut-2-enoyl)piperidin-2-yl)acetonitrile]	≤ 50 nM	≤ 50 nM	≤ 50 nM			
C=C(F)C(=O)N1CC[C@H](n2nnc3c(O[C@@H](C)[C@@H]4CCCN4C)nc4c(F)c(-c5ncc(F)c6ccccc56)c(C)cc4c32)C[C@H]1CC#N [Example 22, 2-((2S,4S)-4-(6-fluoro-7-(4-fluoroisoquinolin-1-yl)-8-methyl-4-((S)-1-((S)-1-methylpyrrolidin-2-yl)ethoxy)-1H-[1,2,3]triazolo[4,5-c]quinolin-1-yl)-1-(2-fluoroacryloyl)piperidin-2-yl)acetonitrile]	≤ 50 nM	≤ 50 nM	≤ 50 nM			

Now from value to compound:

IC50 (KRAS G12C)	IC50 (KRAS_G12C pERK; Homo sapiens, 4 h)	IC50 ([1]; Homo sapiens)	Human whole blood stability at 4 hr [2]	IC50 (KRAS_G12C pERK)	IC50 [1]	Compound
≤ 50 nM	≤ 50 nM	50 to 100 nM				C=C(F)C(=O)N1CC[C@H](n2nnc3c(O[C@@H](C)[C@@H]4CCCN4C)nc4c(F)c(-c5c(F)ccc6ccc(C)nc56)c(C)cc4c32)C[C@H]1CC#N (single isomer, unassigned) [Example 25a]
≤ 50 nM	≤ 50 nM	50 to 100 nM				COC/C=C/C(=O)N1CC[C@H](n2nnc3c(O[C@@H](C)[C@@H]4CCCN4C)nc4c(F)c(-c5cnc(C)c6ccccc56)c(C)cc4c32)C[C@H]1CC#N (single isomer, unassigned) [Example 26a]
≤ 50 nM	≤ 50 nM	50 to 100 nM				C=C(F)C(=O)N1CC[C@H](n2nnc3c(O[C@@H](C)[C@@H]4CCCN4C)nc4c(F)c(-c5c(F)ccc6cccnc56)c(C)cc4c32)C[C@H]1CC#N (single isomer, unassigned) [Example 27a]
≤ 50 nM				≤ 50 nM	50 to 100 nM	C=C(F)C(=O)N1CC[C@H](n2nnc3c(O[C@@H](C)[C@@H]4CCCN4C)nc4c(F)c(-c5c(F)ccc6cccnc56)c(C)cc4c32)C[C@H]1CC#N (single isomer, unassigned) [Example 27b]
≤ 50 nM		≤ 50 nM	††† (WBS >90%)			COC/C=C/C(=O)N1CC[C@H](n2nnc3c(O[C@@H](C)[C@@H]4CCCN4C)nc4c(F)c(-c5c(F)cccc5OC)c(C)cc4c32)C[C@H]1CC#N (single isomer, unassigned) [Example 34b]
